Test results from publication PMC3754837 (Neuropharmacology, 2013).

Experiments:
[1] = biological target: T1, m5-HT2A (C57Bl/6 mouse 5-HT2A receptor) (Mus musculus, UniProt P35363); experiment: saturation radioligand binding, HEK-293 membranes
[2] = biological target: T1, m5-HT2A (C57Bl/6 mouse 5-HT2A receptor); experiment: [3H]-ketanserin competition, HEK-293 membranes; type: binding
[3] = biological target: T2, h5-HT2A (human 5-HT2A receptor) (Homo sapiens, UniProt P28223); experiment: [3H]-ketanserin competition, HEK-293 membranes; type: binding
T2 sequence (P28223 whole entry): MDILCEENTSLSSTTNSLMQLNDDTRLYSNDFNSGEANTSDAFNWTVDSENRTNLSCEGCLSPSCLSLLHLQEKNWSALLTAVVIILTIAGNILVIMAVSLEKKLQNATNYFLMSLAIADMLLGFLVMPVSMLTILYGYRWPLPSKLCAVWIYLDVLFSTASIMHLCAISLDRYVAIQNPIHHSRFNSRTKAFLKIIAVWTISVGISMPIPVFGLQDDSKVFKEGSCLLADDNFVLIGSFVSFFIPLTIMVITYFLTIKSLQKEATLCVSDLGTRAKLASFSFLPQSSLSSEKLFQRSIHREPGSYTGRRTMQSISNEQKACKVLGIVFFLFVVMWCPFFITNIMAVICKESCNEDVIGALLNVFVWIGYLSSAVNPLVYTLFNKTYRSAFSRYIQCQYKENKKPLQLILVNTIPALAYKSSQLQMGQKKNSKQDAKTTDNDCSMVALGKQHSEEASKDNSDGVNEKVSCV

[4] = biological target: T3, m5-HT2C (C57Bl/6 mouse 5-HT2C-VNV receptor) (Mus musculus, UniProt P34968, I157V/I161V); experiment: [3H]-mesulergine competition, HEK-293 membranes; type: binding
T3 sequence (P34968 33-459 I157V/I161V): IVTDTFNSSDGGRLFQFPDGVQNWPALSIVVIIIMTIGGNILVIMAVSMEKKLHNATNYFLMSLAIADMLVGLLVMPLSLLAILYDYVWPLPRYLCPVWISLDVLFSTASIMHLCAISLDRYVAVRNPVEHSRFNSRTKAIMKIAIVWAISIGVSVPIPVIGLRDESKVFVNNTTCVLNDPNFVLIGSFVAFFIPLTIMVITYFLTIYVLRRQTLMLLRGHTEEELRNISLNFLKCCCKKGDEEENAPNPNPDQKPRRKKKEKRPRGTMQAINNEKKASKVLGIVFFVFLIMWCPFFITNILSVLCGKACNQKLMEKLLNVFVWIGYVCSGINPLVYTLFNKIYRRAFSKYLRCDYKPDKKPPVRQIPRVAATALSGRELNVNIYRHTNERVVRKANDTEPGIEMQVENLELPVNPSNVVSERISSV

[5] = biological target: T4, h5-HT2C (human 5-HT2C-INI receptor) (Homo sapiens, UniProt P28335); experiment: biochemical; type: binding
T4 sequence (P28335 33-458): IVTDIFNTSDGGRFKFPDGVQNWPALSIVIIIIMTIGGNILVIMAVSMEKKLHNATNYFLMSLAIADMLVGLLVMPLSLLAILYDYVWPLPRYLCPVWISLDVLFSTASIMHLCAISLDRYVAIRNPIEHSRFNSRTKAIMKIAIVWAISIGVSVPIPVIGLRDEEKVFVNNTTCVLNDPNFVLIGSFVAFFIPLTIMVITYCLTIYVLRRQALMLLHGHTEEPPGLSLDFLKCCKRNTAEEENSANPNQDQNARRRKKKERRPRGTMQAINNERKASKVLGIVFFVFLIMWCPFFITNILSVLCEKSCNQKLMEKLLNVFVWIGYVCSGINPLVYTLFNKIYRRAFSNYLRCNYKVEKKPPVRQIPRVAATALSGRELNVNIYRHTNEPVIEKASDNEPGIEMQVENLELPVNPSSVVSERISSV

[6] = biological target: T3, m5-HT2C (C57Bl/6 mouse 5-HT2C-VNV receptor); experiment: [3H]-inositol phosphate accumulation; type: cell-based
[7] = biological target: T2, h5-HT2A (human 5-HT2A receptor); experiment: [3H]-inositol phosphate accumulation; type: cell-based
[8] = biological target: T1, m5-HT2A (C57Bl/6 mouse 5-HT2A receptor); experiment: [3H]-inositol phosphate accumulation; type: cell-based
[9] = biological target: T4, h5-HT2C (human 5-HT2C-INI receptor); experiment: [3H]-inositol phosphate accumulation; type: cell-based
[10] = biological target: T3, m5-HT2C (C57Bl/6 mouse 5-HT2C-VNV receptor); experiment: saturation radioligand binding, HEK-293 membranes

T1 sequence (P35363 whole entry): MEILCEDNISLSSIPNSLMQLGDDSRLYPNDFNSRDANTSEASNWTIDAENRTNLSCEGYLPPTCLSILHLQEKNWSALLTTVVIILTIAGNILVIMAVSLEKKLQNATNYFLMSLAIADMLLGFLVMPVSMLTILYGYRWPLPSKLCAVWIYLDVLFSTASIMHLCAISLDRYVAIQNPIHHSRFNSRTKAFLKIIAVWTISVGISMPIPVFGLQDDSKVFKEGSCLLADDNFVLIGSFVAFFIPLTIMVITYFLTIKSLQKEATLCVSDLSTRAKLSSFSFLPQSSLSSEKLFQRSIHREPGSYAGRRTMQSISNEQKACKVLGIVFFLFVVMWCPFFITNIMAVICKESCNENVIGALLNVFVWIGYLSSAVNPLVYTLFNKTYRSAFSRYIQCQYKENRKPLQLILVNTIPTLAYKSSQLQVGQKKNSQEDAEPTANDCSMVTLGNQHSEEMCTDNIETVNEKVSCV

SMILES	Kd [1] [nM]	Ki [2] [nM]	Ki [3] [nM]	Ki [4] [nM]	Ki [5] [nM]	EC50 [6] [nM]	EC50 [7] [nM]	EC50 [8] [nM]	EC50 [9] [nM]	Kd [10] [nM]
O=C(c1ccc(F)cc1)C1CCN(CCn2c(=O)[nH]c3ccccc3c2=O)CC1 [[^3H]-ketanserin]	0.92	–	–	–	–	–	–	–	–	–
Cn1ccc2cc3c(cc21)CCN3C(=O)Nc1cccnc1 [SB-206553]	–	342	676	–	–	–	–	–	–	–
Cc1cc2c(cc1Cl)N(C(=O)Nc1ccc(Oc3cccnc3C)nc1)CC2 [SB-242084]	–	96	146	0.1	1.5	–	–	–	–	–
CN(C)[C@H]1Cc2ccccc2[C@H](c2ccccc2)C1 [(+)-PAT]	–	332	463	1730	–	2110	233	352	–	–
COc1cc(CC(C)N)c(OC)cc1I (racemic) [(±)-DOI]	–	4	–	46.7	19.1	3.4	–	2.6	5.5	–
CN1C[C@@H](NS(=O)(=O)N(C)C)C[C@@H]2c3cccc4c3c(cn4C)C[C@H]21 [[^3H]-mesulergine]	–	–	–	–	–	–	–	–	–	2.2
Cc1ccc([C@H]2C[C@H](N(C)C)Cc3ccccc32)cc1 [Methyl-PAT, (−)-(2S, 4R)-trans-4-(4′-methyl)-N,N-dimethylaminotetralin]	–	326	179	868	128	808	–	–	1120	–
CN(C)[C@@H]1Cc2ccccc2[C@@H](c2ccccc2)C1 [(−)-PAT]	–	116	102	53	–	39	–	–	–	–
